# Test results published in US20160067187A1, “Methods for Treating or Preventing Migraines” (Validus Pharmaceuticals LLC, priority 2005, published 2016).
# Tests used:
# [1] = test system: subjects with migraine headache; test: Open-label pilot study of safety, effectiveness and tolerability in the prophylactic treatment of migraine (Example 1); type: in vivo, human
# Protocol: An open-label pilot study was performed to evaluate the safety, effectiveness and tolerability of the MAOI isocarboxyzid (Marplan®) in the prophylactic treatment of migraine.
# Male and female subjects 18-60 years of age were recruited. […] The subject must have had approximately 3-12 migraine headaches per month for the 3 months prior to entering the screening period. Major exclusion criteria included a history of cluster headache, migraine with prolonged aura, and atypical forms of migraine. […] Concomitant use of tryptans, NSAID's, antidepressants and other commonly used ant-migraine agents was prohibited. The Headache Assessment Scale and other assessments were recorded at Baseline and Weeks 1, 4, 8, 12, 16 and 20. Primary safety and efficacy analysis were based on the intention-to-treat population. Safety data included laboratory data, adverse events, vital signs, and ECG's. The primary efficacy measure was within-subject change from baseline in migraine frequency.
# Fourteen subjects had at least on post-baseline assessment, and seven subjects completed the full 20 weeks of treatment (Table 1a,b). […] Five subjects (31%) withdrew due to adverse events. […] The mean does for completers at the end of study was 38.6 mg (Table 2). […] At baseline, subjects reported an average migraine frequency of 5.2 +1.9 attacks/month. […] At week 20, a frequency of 0.4±0.7 (p<0.001) was observed. […] Because of the small number of subjects and relatively high dropout rate, an analysis of the data using a Last Observation Carried Forward (LOF) procedure was undertaken.
# [2] = test system: patients with tension-type headaches; test: Study of treatment of chronic tension-type headache (Example 5); type: in vivo, human
# From the text: (§1) This study is designed to evaluate the efficacy of isocarboxazid in preventing migraines and in the treatment of chronic tension-type headache.
# (§2) A total of 61 patients suffering from chronic tension-type headache are recruited. […] While on this therapy, 35 of the 42 migraine patients and 16 of the 17 patients with tension-type headaches are experiencing good or very good improvement in their symptoms. […] In tension-type headaches, the effect may occur at the earliest 3-6 weeks and in the case of migraines at the earliest 6-8 weeks after the start of treatment. The therapeutic result is independent of any concurrent depression.
# [3] = human, in vivo, inhaled or intranasal, 10 mg
# [4] = test system: patients suffering from migraine with aura; test: Double blind, randomized, placebo-controlled study in migraine with aura (Example 2); type: in vivo, human; settings: 10 mg to 40 mg per day, oral
# Protocol: A double blind, multicenter, randomized, placebo-controlled study is performed to evaluate the efficacy of isocarboxazid in treating patients suffering from migraine with aura.
# (§3) A total of 16 patients participate in the study in […]. The age of the recruited patients ranges between 18 years and 75 years. Both male and female patients are selected for the study. Recruitment period for the study is 5 months.
# Isocarboxazid is prescribed as a prophylaxis to one group of patients. Also, isocarboxazid is prescribed after the expression of symptoms to another group of patients. […] Dose increments are based on the investigator's judgment of the patient's response. After 4 weeks of therapy on 20 mg per day, the doses may be increased to 30 mg per day, 10 mg in the AM and 20 mg in the PM. After 4 weeks of therapy on 30 mg per day, doses may be increased to 40 mg per day, 20 mg in the AM and 20 mg in the PM. After 4 weeks of 40 mg per day, the doses may be increased to 50 mg per day, 20 mg in the AM and 30 mg in the PM. After 4 weeks of 50 mg per day, the doses may be increased to 60 mg per day, 30 mg in the AM and 30 mg in the PM. The duration of the medication treatment is a total of 20 weeks. […]
# (§4) In order to determine the efficacy of isocarboxazid, pain intensity is evaluated on an assessment scale and recoded in an assessment sheet. […]
# (§5) The collected data are statistically analyzed.
# [5] = test system: patients suffering from migraine without aura; test: Double blind, randomized, placebo-controlled study in migraine without aura (Example 3); type: in vivo, human; settings: 10 mg to 40 mg per day, oral
# From the text: as §3
# Isocarboxazid is prescribed as a prophylaxis to one group of patients. Also, isocarboxazid is prescribed after the expression of symptoms to another group of patients. […] Dose increments are based on the investigator's judgment of the patient's response. After 4 weeks of therapy on 20 mg per day, the doses may be increased to 30 mg per day, 10 mg in the AM and 20 mg in the PM. After 4 weeks of therapy on 30 mg per day, doses may be increased to 40 mg per day, 20 mg in the AM and 20 mg in the PM. After 4 weeks of 40 mg per day, the doses may be increased to 50 mg per day, 20 mg in the AM and 30 mg in the PM. After 4 weeks of 50 mg per day, the doses may be increased to 60 mg per day, 30 mg in the AM and 30 mg in the PM. The duration of the medication treatment is a total of 20 weeks.
# Patients in the study are diagnosed for the symptoms of migraine without aura. Diagnosis is performed according to the criteria set forth by the International Headache Society. […]
# as §4, §5
# [6] = test system: migraine patients; test: Study of preventing migraines (Example 5); type: in vivo, human
# From the text: as §1, §2
# [7] = test system: acute migraine headaches; test: Double blind, placebo-controlled single dose study in acute migraine headaches (Example 4); type: in vivo, human; settings: 20 and 40 mg single doses; after 2 hrs and 24 hours
# Protocol: A double blind, multicenter, randomized, placebo-controlled single dose study to evaluate the efficacy of isocarboxazid in the treatment of acute migraine headaches is conducted.
# The study consists of a screening visit, at home treatment of a single migraine attack, and a follow up visit 1-5 days following treatment. In addition to safety evaluations, the patients are evaluated for efficacy based on superiority over the placebo at 2 hour and 24 hour periods
# after dosing for a) pain relief; b) incidence of photophobia; c) incidence of phonophobia; and d) incidence of nausea.
# The results are collected from 30 patients.
smiles,measurement,setting,value
Cc1cc(C(=O)NNCc2ccccc2)no1 [isocarboxazid],"Discontinued (Lack of efficacy), number of subjects (%)","[1]; 16 subjects at baseline visit, 20 weeks",0 (0%)
same,Change from baseline (mean ± SD) in migraine frequency,"[1]; LOCF, n 14, p-value 7.0 × 10^−6",3.8 ± 2.8
same,Change from baseline (mean ± SD) in migraine frequency,"[1]; Observed cases, n 7, p-value 1.5 × 10^−7",5.9 ± 1.5
same,reduction in migraine frequency during the course of treatment,[1]; all subjects,significant reduction
same,"Adverse Event: Anxiety, Number","[1]; both, human, in vivo, 20 weeks",1
same,"Adverse Event: Fatigue, Number","[1]; both, human, in vivo, 20 weeks",2
same,"Adverse Event: Insomnia, Number","[1]; both, human, in vivo, 20 weeks",1
same,"Adverse Event: Nosebleed, Number","[1]; both, human, in vivo, 20 weeks",1
same,"Discontinued (Adverse Experience), number of subjects (%)","[1]; both, human, in vivo, 20 weeks",5 (31%)
same,subjects who withdrew due to adverse events,"[1]; both, human, in vivo, 20 weeks",31%
same,reduction in migraine frequency (clinically significant response) reached by all completers,"[1]; by week 16, all subjects completing the study, FIG. 3",≥ 50%
same,maximum dose tolerated by most subjects,"[1]; most subjects, FIG. 1, titrated from 20 mg per day up to 60 mg per day",20 to 40 mg/day
same,reductions in migraine frequency by week 8,"[1]; week 8, FIG. 2",significant reductions
same,migraine frequency at week 20,"[1]; week 20, baseline 5.2 +1.9 attacks/month, p<0.001",0.4±0.7 attacks/month
same,earliest occurrence of the effect after the start of treatment,[2],3-6 weeks
same,patients experiencing good or very good improvement in their symptoms,"[2]; 10 to 60 mg daily dose, about 8 months on average",16 of the 17
same,share of the maximum plasma concentration (Cmax) reached at 30 minutes after administration,[3],60%
same,effect versus placebo in treating and preventing migraine with aura,[4],superior effect over the placebo
same,effect versus placebo in treating and preventing migraine without aura,[5],superior effect over the placebo
same,patients experiencing good or very good improvement in their symptoms,"[6]; migraine patients, 10 to 60 mg daily dose, about 8 months on average",35 of the 42
same,earliest occurrence of the effect after the start of treatment,[6]; migraines,6-8 weeks
same,effect versus placebo in treating acute headaches,[7],superior effect over a placebo
